Results published in US12083105B2, “Compositions and methods for treating adult-onset neuronal ceroid lipofuscinosis (Kufs disease)” (CORNELL UNIVERSITY, priority 2020, dated 2024).

Test system: CSPα
Assay: CSPα oligomerization and palmitoylation in ANCL patient-derived induced neurons (quantitative immunoblotting)
Format: cell-based, human
Conditions: ANCL iNs; 72 h; compared to vehicle alone; FIG. 7B
Procedure: ANCL patient-derived fibroblasts were treated with 200 μM of L1 or Dfx, or vehicle (0.1% DMSO=Control) for 72 h, before measuring the UV-Vis absorbance spectra of immunoprecipitated CSPα eluted by trypsinization (solid lines). Spectra were re-read after 10 min of 0.1 N HCl treatment (dashed lines). The experiments shown in FIGS. 7B-7I, were conducted using ANCL fibroblasts converted to iNs using BAM+ND1 technique. […] Quantitative immunoblotting was used to measure levels of oligomerized and fully palmitoylated CSPα as well as total SNAP-25. Oligo=oligomers; Palm=palmitoylated. […] The interaction of CSPα with SNAP-25 in ANCL iNs was measured by immunoprecipitating SNAP-25 followed by quantitative immunoblotting of co-immunoprecipitated CSPα (normalized to SNAP-25 IP). Note that mainly CSPα monomers and not oligomers were detected bound to SNAP-25. Control=control sham IP without IgG. […] Turnover of SNAP-25 was determined by cycloheximide chase, while maintaining the iron-chelators or vehicle in the medium. […] In the experiments shown in FIGS. 7E-7G, ANCL iNs treated with L1, Dfx, or vehicle for 56 d and analyzed. […] The levels of lipofuscin were determined by ELISA. In the experiments shown in FIGS. 7H-7I 56 day old untreated ANCL iNs were treated with L1, Dfx, or vehicle, and analyzed. […] Data are from FIG. 7A representative of n=4, FIG. 7B n=4, FIG. 7C n=4, FIG. 7D n=7, FIG. 7F n=4, FIG. 7G n=4, FIG. 7H n=6, FIG. 7I n=3. In FIGS. 7B-7C and FIGS. 7F-7G *P<0.05; **P<0.01; ****P<0.0001 by two-tailed Student's t-test. #P<0.05 by Mann-Whitney-Wilcoxon U test. In FIG. 7D-7C and FIGS. 7H-7I **P<0.01; ***P<0.001; ****P<0.0001 by two-way ANOVA; ##P<0.01; ###P<0.001; ####P<0.0001 by Tukey's multiple comparisons test.
For pharmacological iron-chelation, deferiprone (L1; 200 μM; Biotang), deferoxamine mesylate (Dfx; 200 μM; Calbiochem), or 0.1% DMSO as vehicle control were added to the respective culture media of primary cortical neurons, fibroblasts, or iNs. When these media were changed, the fresh media contained identical concentration of the respective iron-chelator or vehicle.
Fibroblasts from an affected person carrying the L116Δ mutation were obtained, and an age-and-sex matched unaffected fibroblast line was frozen, thawed and cultured in parallel to maintain similar passage numbers. Fibroblasts were maintained in DMEM supplemented with 10% fetal bovine serum supplemented with L-glutamine, penicillin, and streptomycin. […]
For SDS-PAGE, 10-15% Laemmli gels (10.3% T and 3.3% C) were used to separate proteins on Bio-Rad apparati. […] Immunoblots were washed 5× with TBS-T and dried, then scanned on Odyssey CLx (LI-COR) and quantified using Image-Studio software (LI-COR). […]

Structure (SMILES)	oligomerization of CSPα	palmitoylation of CSPα
CC(=O)N(O)CCCCCNC(=O)CCC(=O)N(O)CCCCCNC(=O)CCC(=O)N(O)CCCCCN [Dfx, N′-[5-(Acetyl-hydroxy-amino)pentyl]-N-[5-[3-(5-aminopentyl-hydroxy-carbamoyl)propanoylamino]pentyl]-N-hydroxy-butane diamide]	reduced the oligomerization	improved palmitoylation
Cc1c(O)c(=O)ccn1C [L1, 3-hydroxy-1,2-dimethyl-4(1H)-pyridone]	reduced the oligomerization	improved palmitoylation
